Data reported in PubChem BioAssay (NCI).
Several values for one entry are separate records, joined by “and”; a condition that tells them apart may be missing. Identical values can stand only once.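 Grown in 96-well plates, cells were treated for 48 hours with each compound at five concentrations. Insufficient inhibition: endpoint recorded as highest concentration tested. GI50 marks 50% less growth. The concentration for full growth arrest is given as TGI.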

What was measured:
Test in all cases: growth of human tumour cells (NCI), 48 h
MALME-3M melanoma = test system: MALME-3M melanoma
SF-268 CNS = test system: SF-268 CNS
NCI-H460 lung = test system: NCI-H460 lung
PC-3 prostate = test system: PC-3 prostate
HL-60(TB) leukemia = test system: HL-60(TB) leukemia
U251 CNS = test system: U251 CNS
OVCAR-5 ovarian = test system: OVCAR-5 ovarian
A549 NSCLC = test system: A549 NSCLC
T-47D breast = test system: T-47D breast
HOP-62 NSCLC = test system: HOP-62 NSCLC

Compound | GI50 (MALME-3M melanoma) [µM] | TGI (MALME-3M melanoma) [µM] | GI50 (SF-268 CNS) | TGI (SF-268 CNS) | GI50 (NCI-H460 lung) [µM] | TGI (NCI-H460 lung) | GI50 (PC-3 prostate) [µM] | TGI (PC-3 prostate) | GI50 (HL-60(TB) leukemia) | TGI (HL-60(TB) leukemia) [µM] | GI50 (U251 CNS) [µM] | TGI (U251 CNS) [µM] | GI50 (OVCAR-5 ovarian) [µM] | TGI (OVCAR-5 ovarian) [µM] | GI50 (A549 NSCLC) | TGI (A549 NSCLC) [µM] | GI50 (T-47D breast) [µM] | TGI (T-47D breast) | TGI (HOP-62 NSCLC) [µM] | GI50 (HOP-62 NSCLC) [µM]
O=C1C[C@@H]2/C(=C(O)\C=C\c3ccccc3)C(=O)C=C[C@@H]2O1 | 1.42 | 3 | 2.09 µM | 6.14 µM | 2.23 | 7.18 µM | 1.95 | 4.9 µM | 1.57 µM | 5.93 | 1.56 | 3.41 | 1.93 | 3.84 | 3.51 µM | 12.8 | 0.905 | 4.55 µM | – | –
CC12CCC(Br)C(C)(C)C1CC=C1C(=O)OCC1O2 (centres undefined) | – | – | – | 31.9 µM | – | 36.2 µM | – | 24.2 µM | – | > 100 | – | 23.2 | – | > 53.3 | – | > 57.9 | – | 45 µM | – | –
Cc1cc(Cl)ccc1NC(=O)CC1SC(=Nc2ccccc2Cl)NC1=O (centres undefined) | – | > 100 | – | > 100 µM | – | > 100 µM | – | – | – | 40.4 | – | > 100 | – | > 100 | – | > 100 | – | – | > 100 | –
O=C(O)CCc1nn2c(nc1=O)sc1ccc3ccccc3c12 | – | > 100 | – | > 100 µM | – | > 100 µM | – | – | – | > 100 | – | > 100 | – | – | – | > 100 | – | – | > 100 | –
Cn1cc2ccccc2c1-c1nc(F)nc(OCC(=O)[C@H]2CCC3[C@@H]4CCC5=CC(=O)CC[C@]5(C)C4[C@@H](O)C[C@@]32C)n1 (some centres undefined) | – | 33.8 | – | 33.3 µM | – | 52.2 µM | – | – | – | 25.3 | – | 36 | – | > 73.7 | – | > 77.8 | – | – | 42.7 | –
O=Cc1c(O)c(C(=O)Nc2ccc3[nH]c(=O)[nH]c3c2)cc2ccccc12 | – | > 100 | – | > 100 µM | – | > 100 µM | – | – | – | > 100 | – | > 100 | – | > 100 | – | > 100 | – | – | > 100 | –
Cc1cccc(C)c1NC(=O)C(=O)Nn1c(NN)nc2ccccc2c1=O | – | > 100 | – | > 100 µM | – | > 100 µM | – | – | – | > 100 | – | > 100 | – | > 100 | – | > 100 | – | – | > 100 | –
NC(N)=NS(=O)(=O)c1ccc(Nc2c3ccccc3nc3c(C(=O)Nc4ccc(S(N)(=O)=O)cc4)cccc23)cc1 | – | > 100 | – | > 100 µM | – | > 100 µM | – | – | – | > 100 | – | > 100 | – | > 100 | – | > 100 | – | – | > 100 | –
Cc1cc2c(C)nn(Cc3ccc(Cl)cc3)c2c(C#N)c1C | – | > 100 | – | > 100 µM | – | – | – | – | – | > 100 | – | > 100 | – | > 100 | – | > 100 | – | – | > 100 | –
N#CC1CC2(CCN1C(=O)c1ccccc1)OCCO2 (centres undefined) | – | > 100 | – | > 100 µM | – | > 100 µM | – | – | – | > 100 | – | > 100 | – | > 100 | – | > 100 | – | – | > 100 | –
Clc1ccc(C(n2cc(Br)cn2)n2cc(Br)cn2)cc1 | – | 31.7 | – | 33.4 µM | – | 33.7 µM | – | – | – | 56.6 | – | 30.8 | – | 29.9 | – | 32.6 | – | – | 34.3 | –
CC(C)OP(=O)(NC(=S)c1ccccc1)OC(C)C | – | > 100 | – | > 100 µM | – | > 100 µM | – | – | – | – | – | > 100 | – | > 100 | – | > 100 | – | – | – | –
COc1cc2c(cc1OC)/C(=C\c1ccccc1N)C(=O)OC2 | – | 29.1 | – | 75.4 µM | – | 33.5 µM | – | – | – | 17.6 | – | 32.6 | – | 35.4 | – | 60.1 | – | – | 45.4 | –
Cn1cc(C(=O)C[n+]2ccccc2)c2ccccc21 | – | > 100 | – | – | – | > 100 µM | – | – | – | > 100 | – | – | – | – | – | > 100 | – | – | > 100 | –
CN(C)c1ccc(/C=c2\sc3nc4ccccc4n3c2=O)cc1 | – | > 100 | – | > 100 µM | – | > 100 µM | – | – | – | > 100 | – | > 100 | – | > 100 | – | > 100 | – | – | > 100 | –
O=C1C(=Cc2c(O)cc(O)cc2O)C(=O)c2ccccc21 | – | > 59.3 | – | > 63.1 µM | – | > 67.7 µM | – | – | – | 43.5 | – | > 57.2 | – | > 57.7 | – | > 100 | – | – | > 100 | –
S=P(N1CC1)(N1CC1)N1CC1 | – | – | 8.67 µM and 24.8 µM | 60.6 µM and 536 µM and 476 µM | 0.588 | 31.7 µM and 195 µM | 310 | 805 µM and 834 µM | 0.942 µM and 1.95 µM | – | – | – | – | – | 10.2 µM and 84 µM | – | 45.5 | 950 µM and 913 µM | – | –
O=c1cccccc1[O-].O=c1cccccc1[O-].O=c1cccccc1[O-].[La+3] | – | 31.9 | – | – | – | > 100 µM | – | – | – | 30.9 | 11 | 76.2 | – | > 100 | – | > 100 | – | – | 78.5 | 31.4
CC1OC(n2cc(F)c(=O)[nH]c2=O)C=CC1=O (centres undefined) | – | 35.3 | – | 38.7 µM | – | 56.8 µM | – | – | – | 70.3 | – | 27.9 | – | 30 | – | > 100 | – | – | > 100 | –
COc1cccc(/C=N/C(/N=C/c2cccc(OC)c2O)c2cccc(OC)c2O)c1O | – | – | – | 42.5 µM | – | 59.9 µM | – | > 100 µM | – | 68.5 | – | 80.1 | – | 73.8 | – | 78.8 | – | 63.9 µM | > 100 | –
CCOC(=O)c1c2c(n3ccccc13)C(=O)c1ncccc1C2=O | 0.0561 | 4.56 | 0.0474 µM | 23.3 µM | – | – | 0.361 | 14.9 µM | 0.0784 µM | 1.09 | 0.0329 | 1.96 | 1.8 | 27.5 | 0.323 µM | 8.01 | 2.51 | 47.8 µM | 8.86 | 0.0777
CC(=O)OCC1OC(n2c(-c3ccc(C)cc3)cc(-c3ccccc3)c(C#N)c2=O)C(OC(C)=O)C(OC(C)=O)C1OC(C)=O (centres undefined) | – | > 100 | – | > 100 µM | – | > 100 µM | – | – | – | > 100 | – | > 100 | – | > 100 | – | > 100 | – | – | > 100 | –
CC(C)(c1ccccc1)c1ccc(OC#N)cc1 | – | > 100 | – | > 100 µM | – | > 59.1 µM | – | – | – | > 77.9 | – | > 100 | – | > 100 | – | > 100 | – | – | > 100 | –
COC(=O)/C=C/c1cc2c(cc1-c1c(C(=O)O)cc(OC)c(OC)c1OC)OCO2 | – | > 10 | – | > 10 µM | – | – | – | > 10 µM | – | > 10 | – | > 10 | – | – | – | > 10 | – | > 10 µM | > 10 | –
